For the test, the target named is T1, GBA2 (Homo sapiens, UniProt Q9HCG7).
T1 sequence (Q9HCG7 1-927): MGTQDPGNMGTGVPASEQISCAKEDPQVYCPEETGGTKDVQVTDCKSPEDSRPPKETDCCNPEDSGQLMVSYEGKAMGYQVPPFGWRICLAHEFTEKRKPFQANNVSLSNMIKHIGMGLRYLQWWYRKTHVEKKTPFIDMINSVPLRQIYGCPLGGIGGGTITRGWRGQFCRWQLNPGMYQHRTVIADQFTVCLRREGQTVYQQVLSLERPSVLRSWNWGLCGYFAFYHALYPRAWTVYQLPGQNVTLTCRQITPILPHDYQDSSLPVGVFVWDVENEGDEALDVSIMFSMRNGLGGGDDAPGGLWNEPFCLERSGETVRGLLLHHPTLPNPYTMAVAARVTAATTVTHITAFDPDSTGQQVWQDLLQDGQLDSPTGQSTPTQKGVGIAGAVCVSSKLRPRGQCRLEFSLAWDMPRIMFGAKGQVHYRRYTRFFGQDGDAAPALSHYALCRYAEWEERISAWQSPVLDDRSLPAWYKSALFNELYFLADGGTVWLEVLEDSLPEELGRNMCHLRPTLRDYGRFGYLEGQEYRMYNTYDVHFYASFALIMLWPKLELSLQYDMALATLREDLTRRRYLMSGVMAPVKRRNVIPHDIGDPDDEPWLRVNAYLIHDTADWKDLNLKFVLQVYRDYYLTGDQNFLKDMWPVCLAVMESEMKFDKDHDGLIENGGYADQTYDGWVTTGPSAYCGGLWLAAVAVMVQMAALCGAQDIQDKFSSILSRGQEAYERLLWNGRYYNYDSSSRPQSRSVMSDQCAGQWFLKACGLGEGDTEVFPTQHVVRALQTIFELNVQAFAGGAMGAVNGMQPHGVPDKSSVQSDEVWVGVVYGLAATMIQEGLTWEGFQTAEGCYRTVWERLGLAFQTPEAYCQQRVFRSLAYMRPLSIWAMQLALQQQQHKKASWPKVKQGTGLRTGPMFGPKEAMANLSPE
Put plainly: Labelling kinetics of ABP 4 on GBA2 by SDS-PAGE. More on the design: expressed in transfected cells; host or cells: HEK293T GBA1/GBA2 KO (CRISPR/Cas9), GBA2 overexpressed. To be noted: HEK293T GBA1/2 KO, GBA2 OE lysate; pH 5.8; 37 °C. It is filed as biochemical. As to the method:
To this end, lysates of HEK293T cells containing all β-glucosidases (endogenous GBA1 with overexpressed GBA2 and GBA3) were treated with ABPs 3, 4, 5 or 7, followed by protein separation by SDS-PAGE and fluorescence scanning of the wet gel slabs. […] In contrast, the β-D-Araf aziridine ABPs 3 and 4 selectively labelled GBA2 at a concentration of 100 nM, while Cy5 tagged ABP 5 did so at 500 nM. The GBA2 selectivity of β-D-Araf cyclitol aziridines 3, 4 and 5 was confirmed in a mixture of a lysate of overexpressed GBA2 cells spiked with 3 ng rhGBA1 (Fig. 2C and ESI Fig. S3 ^†). […] Therefore, only a combined inactivation rate constant (kinact) and binding constant (KI) ratio (kinact/KI) could be measured. […] Importantly, no labelling of GBA1 or GBA3 was detected under varying pH and time conditions (ESI Fig. S4-2 ^†).
Figure S4-1. […] A) Percentage of GBA2 labelling by ABP 4 (left graphs), data was quantified from three independent sets of fluorescent gels under the depicted conditions. […]
of inhibitors diluted in McIlvaine buffer (150 mM, pH 5.2) at 37 °C for 30 min or 3 h. […] After stopping the enzyme reaction with 200 μL 1 M NaOH-glycine (pH 10.3), 4-methylumbelliferone fluorescence was measured with a fluorimeter LS55 (Perkin Elmer, Waltham, MA, USA) with λEX 366 nm and λEM 445 nm. […]

Regarding `COc1ccc(C2=[N+]3C(=C(CCCCc4cn(CCCCCCCCN5[C@@H]6[C@H](CO)[C@@H](O)[C@H](O)[C@@H]65)nn4)c4ccc(-c5ccc(OC)cc5)n4[B-]3(F)F)C=C2)cc1` (stereo partly shown) [ABP 4], the kinact/KI (as a rule, the maximal inactivation rate divided by the concentration that gives half of it) was 19200 M⁻¹ s⁻¹.

These data come from paper PMC11375437, “Selective labelling of GBA2 in cells with fluorescent β-D-arabinofuranosyl cyclitol aziridines” (Chemical Science, 2024).
